In PubChem BioAssay AID192 (DTP/NCI, 2004):
Values joined by “and” are separate entries in the source; they are usually repeats but may differ in a detail not shown here. Identical values can stand only once. Toxic doses and inconclusive results are not listed.

Test system: BDF1 mice, B16 melanoma ip, median survival T/C
Test: NCI In Vivo Anticancer Drug Screen. Data for tumor model B16 Melanoma (intraperitoneal) in B6D2F1 (BDF1) mice
Details: endpoint: median survival time, higher = longer survival
Method: The antitumor activity of compounds was measured in mice bearing transplantable tumors. Survival or tumor size were measured and the results are expressed as the measurement made in the treated group (T) divided by the measurement made in the vehicle treated control group (C). The tumor model used in this assay is B16 Melanoma (intraperitoneal) in B6D2F1 (BDF1) mice

[1] = dose: 6.25 mg/kg/injection, schedule: Q01DX009 (ip), vehicle: saline
[2] = dose: 12.5 mg/kg/injection, schedule: Q01DX009 (ip), vehicle: saline
[3] = dose: 25.0 mg/kg/injection, schedule: Q01DX009 (ip), vehicle: saline
[4] = dose: 12.5 mg/kg/injection, schedule: Q01DX009 (ip), vehicle: Klucel (hydroxypropylcellulose) (HPC)
[5] = dose: 25.0 mg/kg/injection, schedule: Q01DX009 (ip), vehicle: saline with Tween-80
[6] = dose: 50.0 mg/kg/injection, schedule: Q01DX009 (ip), vehicle: saline with Tween-80
[7] = dose: 100.0 mg/kg/injection, schedule: Q01DX009 (ip), vehicle: saline with Tween-80
[8] = dose: 100.0 mg/kg/injection, schedule: Q01DX009 (ip), vehicle: Klucel (hydroxypropylcellulose) (HPC)
[9] = dose: 200.0 mg/kg/injection, schedule: Q01DX009 (ip), vehicle: Klucel (hydroxypropylcellulose) (HPC)
[10] = dose: 50.0 mg/kg/injection, schedule: Q01DX009 (ip), vehicle: saline
[11] = dose: 400.0 mg/kg/injection, schedule: Q01DX009 (ip), vehicle: Klucel (hydroxypropylcellulose) (HPC)
[12] = dose: 12.5 mg/kg/injection, schedule: Q01DX009 (ip), vehicle: saline with Tween-80

## c1ccc(C[n+]2ccc3ccccc3c2)cc1
[1]
  T/C: 105 % of control and 113 % of control
dose: 6.25 mg/kg/injection, schedule: Q04DX003 (ip), vehicle: saline with Tween-80
  T/C: 95 % of control
[2]
  T/C: 117 % of control
dose: 12.5 mg/kg/injection, schedule: Q04DX003 (ip), vehicle: saline with Tween-80
  T/C: 107 % of control
[3]
  T/C: 108 % of control and 110 % of control
dose: 25.0 mg/kg/injection, schedule: Q04DX003 (ip), vehicle: saline with Tween-80
  T/C: 100 % of control

## CCOC(=O)C1C(=O)C(CN(CCCl)CCCl)C(=O)C(C(=O)OCC)C1c1ccc(O)cc1 (stereo not given)
[4]
  T/C: 158 % of control

## O=C(O)/C=C/c1ccc(/C=C/C(=O)O)cc1
dose: 100.0 mg/kg/injection, schedule: Q04DX003 (ip), vehicle: saline with Tween-80
  T/C: 111 % of control
dose: 200.0 mg/kg/injection, schedule: Q04DX003 (ip), vehicle: saline with Tween-80
  T/C: 102 % of control
dose: 400.0 mg/kg/injection, schedule: Q04DX003 (ip), vehicle: saline with Tween-80
  T/C: 100 % of control

## CC(C)(C)C(=O)C1C(=O)c2ccccc2C1=O
dose: 0.06 mg/kg/injection, schedule: Q01DX009 (ip), vehicle: Klucel (hydroxypropylcellulose) (HPC)
  T/C: 94 % of control
dose: 0.12 mg/kg/injection, schedule: Q01DX009 (ip), vehicle: Klucel (hydroxypropylcellulose) (HPC)
  T/C: 97 % of control
dose: 0.25 mg/kg/injection, schedule: Q01DX009 (ip), vehicle: Klucel (hydroxypropylcellulose) (HPC)
  T/C: 100 % of control and 108 % of control

## OCCOc1c(Cl)c(Cl)c(Cl)c(Cl)c1Cl
[5]
  T/C: 100 % of control
[6]
  T/C: 92 % of control
[7]
  T/C: 97 % of control

## Cc1cc(C)c(NC(=O)Nc2cccc(Cl)c2)c(C)c1
[8]
  T/C: 88 % of control
[9]
  T/C: 94 % of control

## c1ccc2c(c1)CNNC2
[10]
  T/C: 123 % of control
dose: 100.0 mg/kg/injection, schedule: Q01DX009 (ip), vehicle: saline
  T/C: 111 % of control
dose: 200.0 mg/kg/injection, schedule: Q01DX009 (ip), vehicle: saline
  T/C: 100 % of control

## O=C(O)CSCCc1ccccc1
[8]
  T/C: 96 % of control
[9]
  T/C: 93 % of control
[11]
  T/C: 100 % of control

## CCCC(=O)O.CCCC(=O)O.CCCC(=O)O.CCCC(=O)O.[Rh].[Rh]
dose: 46.7 micrograms/kg/injection, schedule: Q08HX018 (ip), vehicle: saline + alcohol
  T/C: 98 % of control
dose: 77.8 micrograms/kg/injection, schedule: Q08HX018 (ip), vehicle: saline + alcohol
  T/C: 97 % of control
dose: 93.3 micrograms/kg/injection, schedule: Q01DX009 (ip), vehicle: saline + alcohol
  T/C: 98 % of control
dose: 156.0 micrograms/kg/injection, schedule: Q01DX009 (ip), vehicle: saline + alcohol
  T/C: 98 % of control
dose: 216.0 micrograms/kg/injection, schedule: Q08HX018 (ip), vehicle: saline + alcohol
  T/C: 88 % of control
dose: 259.0 micrograms/kg/injection, schedule: Q01DX009 (ip), vehicle: saline + alcohol
  T/C: 102 % of control

## CC(=O)CC(C)=O.CC(=O)CC(C)=O.O=N[O-].O=N[O-].[Co]
[12]
  T/C: 96 % of control
[5]
  T/C: 103 % of control
[6]
  T/C: 91 % of control

## [I][Pt+2][I].[NH-]CC[NH-]
dose: 2.75 mg/kg/injection, schedule: Q01DX009 (ip), vehicle: Klucel (hydroxypropylcellulose) (HPC)
  T/C: 110 % of control
dose: 5.5 mg/kg/injection, schedule: Q01DX009 (ip), vehicle: Klucel (hydroxypropylcellulose) (HPC)
  T/C: 109 % of control and 114 % of control
dose: 11.0 mg/kg/injection, schedule: Q01DX009 (ip), vehicle: Klucel (hydroxypropylcellulose) (HPC)
  T/C: 109 % of control and 113 % of control
dose: 22.0 mg/kg/injection, schedule: Q01DX009 (ip), vehicle: Klucel (hydroxypropylcellulose) (HPC)
  T/C: 120 % of control

## CC(=O)OC1C2(CC3N4C(=O)C5(CO)SSC4(CC31O)C(=O)N5C)OC(C)C(C)(C)C2=O (stereo not given)
dose: 0.08 mg/kg/injection, schedule: Q01DX009 (ip), vehicle: saline with Tween-80
  T/C: 96 % of control
dose: 0.16 mg/kg/injection, schedule: Q01DX009 (ip), vehicle: saline with Tween-80
  T/C: 101 % of control
dose: 0.3 mg/kg/injection, schedule: Q01DX009 (ip), vehicle: saline with Tween-80
  T/C: 88 % of control
dose: 0.6 mg/kg/injection, schedule: Q01DX009 (ip), vehicle: saline with Tween-80
  T/C: 98 % of control

## C=C1C(=O)O[C@@H]2[C@H]3O[C@]3(C)CCC=C(C)CC[C@@H]12
[4]
  T/C: 92 % of control
dose: 25.0 mg/kg/injection, schedule: Q01DX009 (ip), vehicle: Klucel (hydroxypropylcellulose) (HPC)
  T/C: 87 % of control
dose: 50.0 mg/kg/injection, schedule: Q01DX009 (ip), vehicle: Klucel (hydroxypropylcellulose) (HPC)
  T/C: 92 % of control

## CC(C)CC(NC(=O)CNC(=O)/C=C/c1ccco1)C(N)=O (stereo not given)
dose: 6.25 mg/kg/injection, schedule: Q01DX009 (ip), vehicle: saline with Tween-80
  T/C: 105 % of control
[1]
  T/C: 106 % of control
[12]
  T/C: 105 % of control
[2]
  T/C: 100 % of control
[5]
  T/C: 110 % of control
[3]
  T/C: 95 % of control
[6]
  T/C: 100 % of control and 105 % of control
[10]
  T/C: 97 % of control
[7]
  T/C: 92 % of control
dose: 200.0 mg/kg/injection, schedule: Q01DX009 (ip), vehicle: saline with Tween-80
  T/C: 98 % of control

## CC(C)C[C@H](O)C(=O)O
[3]
  T/C: 104 % of control
[10]
  T/C: 110 % of control

## Cc1ccc(NS(=O)(=O)c2ccccc2)cc1Cl
[9]
  T/C: 90 % of control
[11]
  T/C: 88 % of control

## CC(C)(SCCc1ccc([N+](=O)[O-])cc1)C(N)C(=O)O (stereo not given)
dose: 6.25 mg/kg/injection, schedule: Q01DX009 (ip), vehicle: Klucel (hydroxypropylcellulose) (HPC)
  T/C: 88 % of control

## S=c1nc[nH]c2nc[nH]c12
dose: 2.5 mg/kg/injection, schedule: Q01DX009 (ip), vehicle: other
  T/C: 120 % of control
dose: 2.5 mg/kg/injection, schedule: Q01DX009 (ip), vehicle: saline
  T/C: 107 % of control
dose: 5.0 mg/kg/injection, schedule: Q01DX009 (ip), vehicle: other
  T/C: 112 % of control
dose: 5.0 mg/kg/injection, schedule: Q01DX009 (ip), vehicle: saline
  T/C: 110 % of control
dose: 7.5 mg/kg/injection, schedule: Q01DX009 (ip), vehicle: Klucel (hydroxypropylcellulose) (HPC)
  T/C: 93 % of control
dose: 9.38 mg/kg/injection, schedule: Q01DX009 (ip), vehicle: alkali diluted with water
  T/C: 94 % of control
dose: 10.0 mg/kg/injection, schedule: Q01DX009 (ip), vehicle: saline
  T/C: 110 % of control
dose: 11.3 mg/kg/injection, schedule: Q01DX009 (ip), vehicle: other
  T/C: 90 % of control
[4]
  T/C: 110 % of control
dose: 18.8 mg/kg/injection, schedule: Q01DX009 (ip), vehicle: alkali diluted with water
  T/C: 100 % of control
dose: 20.0 mg/kg/injection, schedule: Q01DX009 (ip), vehicle: saline
  T/C: 160 % of control
dose: 22.5 mg/kg/injection, schedule: Q01DX009 (ip), vehicle: other
  T/C: 95 % of control
dose: 25.0 mg/kg/injection, schedule: Q01DX009 (ip), vehicle: acid diluted with saline
  T/C: 87 % of control
dose: 30.0 mg/kg/injection, schedule: Q01DX009 (ip), vehicle: saline
  T/C: 105 % of control
dose: 37.5 mg/kg/injection, schedule: Q01DX009 (ip), vehicle: alkali diluted with water
  T/C: 88 % of control
dose: 40.0 mg/kg/injection, schedule: Q01DX009 (ip), vehicle: saline
  T/C: 110 % of control
dose: 75.0 mg/kg/injection, schedule: Q01DX009 (ip), vehicle: alkali diluted with water
  T/C: 84 % of control
dose: 78.0 mg/kg/injection, schedule: Q04DX003 (ip), vehicle: alkali diluted with water
  T/C: 96 % of control
dose: 120.0 mg/kg/injection, schedule: Q04DX003 (ip), vehicle: alkali diluted with water
  T/C: 98 % of control
dose: 150.0 mg/kg/injection, schedule: Q01DX009 (ip), vehicle: alkali diluted with water
  T/C: 46 % of control
dose: 200.0 mg/kg/injection, schedule: Q04DX003 (ip), vehicle: alkali diluted with water
  T/C: 84 % of control
dose: 333.0 mg/kg/injection, schedule: Q04DX003 (ip), vehicle: alkali diluted with water
  T/C: 81 % of control

## CC1OC(C)(C)OC1C(=O)O (stereo not given)
dose: 6.25 mg/kg/injection, schedule: Q01DX009 (ip), vehicle: water
  T/C: 96 % of control
dose: 12.5 mg/kg/injection, schedule: Q01DX009 (ip), vehicle: water
  T/C: 119 % of control
dose: 25.0 mg/kg/injection, schedule: Q01DX009 (ip), vehicle: water
  T/C: 104 % of control
dose: 50.0 mg/kg/injection, schedule: Q01DX009 (ip), vehicle: water
  T/C: 105 % of control
